Where two headings read alike, the source gives them in different places.
Columns and labels:
[1] = test system: T. b. brucei; assay: growth inhibitory activity against axenic T. b. brucei parasites; type: cell-based, Trypanosoma brucei; settings: highest concentration tested 10 μM; for IC50: read-out: IC50 T. b. brucei
[2] = test system: T98G cells; assay: cytotoxicity in mammalian cells; type: cell-based; settings: read-out: IC50 mammalian cells
[3] = test system: HeLa cells; assay: cytotoxicity in mammalian cells; type: cell-based; settings: read-out: IC50 mammalian cells
[4] = HAT treatment; cited from earlier work

For `CC1=CC=CC[C@H](C)NC(=O)C=CC=CC=C[C@H](C)[C@@H](O)[C@H](O)[C@@H](O)C[C@@H](O)/C=C\C=CC(C)=C1` [Lobosamide A], the “antitrypanosomal activity (in words)” value [1] was “sub-micromolar”, the IC50 [1] was 0.8 µM and the IC50 [2] was > 66 µM.

With `CC1=CC=CC[C@H](C)NC(=O)C=CC=CC=C[C@H](C)[C@@H](O)[C@H](O)[C@@H](O)C[C@@H](O)/C=C/C=CC(C)=C1` [Lobosamide B] the IC50 [1] was 6.1 µM, the IC50 ([1]; listed as B) was < 10 µM and the IC50 [2] was > 66 µM.

For `CC1=CC=CC[C@H](C)NC(=O)C=CC=CC=C[C@H](C)[C@@H](O)C[C@@H](O)C[C@@H](O)/C=C\C=CC(C)=C1` [Lobosamide C], the IC50 [3] was > 33 µM, the “antitrypanosomal activity (in words)” value [1] was “inactive” and the IC50 [1] was > 10 µM.

For `CC1=CC=CC=CC[C@H](C)NC(=O)C=CC=CC=CC[C@@H](O)[C@H](O)[C@@H](O)C[C@@H](O)C=CC=C1` [Mirilactam A], the “antitrypanosomal activity (in words)” value [1] was “lack of activity” and the IC50 [1] was > 10 µM.

With `CC1=CC=CC=CC[C@H](C)NC(=O)C=CC=CC=CC[C@@H](O)C[C@@H](O)C[C@@H](O)C=CC=C1` [Mirilactam B] the IC50 [3] was > 33 µM and the IC50 [1] was > 10 µM.

In the case of `Nc1nc(N)nc(Nc2ccc([As]3SCC(CO)S3)cc2)n1` (centres unmarked) [melarsoprol], the drug-induced death rate [4] is given as 5%.
